Experimental data as given in ChEMBL document CHEMBL4680150, “Design, synthesis and biological evaluation of vincamine derivatives as potential pancreatic β-cells protective agents for the treatment of type 2 diabetes mellitus” (Eur J Med Chem, 2020).
Active and inactive are the calls of the source.

Columns and labels:
[1] = system: INS1(832/13); assay: Cytoprotective activity in rat INS-1 832/13 cells assessed as inhibition of STZ-induced apoptosis at 20 uM incubated for 24 hrs by MTT assay relative to control; type: functional
[2] = system: INS1(832/13); assay: Cytoprotective activity in rat INS-1 832/13 cells assessed as inhibition of STZ-induced apoptosis incubated for 24 hrs by MTT assay; type: functional, cell-based; conditions: INS-1 832/13, 24 h
[3] = system: INS1(832/13); assay: Cytoprotective activity against STZ-induced toxicity in rat INS-1 832/13 cells at 10 uM incubated for 24 hrs by MTT assay; type: functional, cell-based
[4] = system: INS-1 832/13; assay: Activation of PI3K/Akt signalling pathway in STZ-induced rat INS-1 832/13 cells assessed as decrease in p21 mRNA expression at 5 to 20 uM after 24 hrs by RT-PCR analysis; conditions: filed as activator, dose 5-20 µM
[5] = system: INS1(832/13); assay: Cytoprotective activity against STZ-induced rat INS-1 832/13 cells assessed as increase in IRS2 mRNA expression at 5 to 20 uM after 24 hrs RT-PCR analysis; type: functional, cell-based; conditions: dose 5-20 µM
[6] = system: INS1(832/13); assay: Cytoprotective activity against STZ-induced toxicity in rat INS-1 832/13 cells assessed as mass of apoptotic cells at 5 uM by Annexin V-FITC staining based flow cytometric analysis (reference value: 40.8%); type: functional
[7] = system: INS-1 832/13; assay: Activation of PI3K/Akt signalling pathway in STZ-induced rat INS-1 832/13 cells assessed as decrease in caspase 3 protein expression at 5 to 20 uM after 24 hrs by Western blot analysis; conditions: filed as activator, dose 5-20 µM
[8] = system: INS-1 832/13; assay: Activation of PI3K/Akt signalling pathway in STZ-induced rat INS-1 832/13 cells assessed as decrease in caspase 9 protein expression at 5 to 20 uM after 24 hrs by Western blot analysis; conditions: filed as activator, dose 5-20 µM
[9] = system: INS1(832/13); assay: Cytoprotective activity against STZ-induced rat INS-1 832/13 cells assessed as increase in IRS2 protein expression at 5 to 20 uM after 24 hrs Western blot analysis; type: functional, cell-based; conditions: dose 5-20 µM
[10] = system: INS-1 832/13; assay: Activation of PI3K/Akt signalling pathway in STZ-induced rat INS-1 832/13 cells assessed as increase in phosphorylation of GSK3beta at Ser9 residue at 5 to 20 uM after 24 hrs by Western blot analysis; conditions: filed as activator, dose 5-20 µM
[11] = system: INS-1 832/13; assay: Activation of PI3K/Akt signalling pathway in STZ-induced rat INS-1 832/13 cells assessed as decrease in cleaved-caspase 3 protein expression at 5 to 20 uM after 24 hrs by Western blot analysis; conditions: filed as activator, dose 5-20 µM
[12] = system: INS-1 832/13; assay: Activation of PI3K/Akt signalling pathway in STZ-induced rat INS-1 832/13 cells assessed as decrease in Bim mRNA expression at 5 to 20 uM after 24 hrs by RT-PCR analysis; conditions: filed as activator, dose 5-20 µM
[13] = system: INS1(832/13); assay: Cytoprotective activity against STZ-induced toxicity in rat INS-1 832/13 cells assessed as mass of apoptotic cells at 10 uM by Annexin V-FITC staining based flow cytometric analysis (reference value: 40.8%); type: functional
[14] = system: INS-1 832/13; assay: Activation of AKT in STZ-induced rat INS-1 832/13 cells assessed as increase in Akt phosphorylation at 5 to 20 uM after 24 hrs by AlphaLISA assay; conditions: filed as activator, dose 5-20 µM
[15] = system: INS1(832/13); assay: Cytoprotective activity against STZ-induced toxicity in rat INS-1 832/13 cells assessed as mass of apoptotic cells at 20 uM by Annexin V-FITC staining based flow cytometric analysis (reference value: 40.8%); type: functional
[16] = system: INS-1 832/13; assay: Activation of AKT in STZ-induced rat INS-1 832/13 cells assessed as increase in Akt phosphorylation at 5 to 20 uM after 24 hrs by Western blot analysis; conditions: filed as activator, dose 5-20 µM
[17] = system: INS-1 832/13; assay: Activation of AKT in STZ-induced rat INS-1 832/13 cells assessed as increase in Akt phosphorylation at 20 uM after 24 hrs in presence of wortmannin by Western blot analysis
[18] = system: INS-1 832/13; assay: Activation of PI3K/Akt signalling pathway in STZ-induced rat INS-1 832/13 cells assessed as increase in phosphorylation of FOX01 at Ser256 residue at 5 to 20 uM after 24 hrs by Western blot analysis; conditions: filed as activator, dose 5-20 µM
[19] = system: INS1(832/13); assay: Cytoprotective activity in rat INS-1 832/13 cells assessed as inhibition of STZ-induced apoptosis at 20 uM incubated for 24 hrs in presence of wortmannin by MTT assay; type: functional, cell-based
[20] = system: INS1(832/13); assay: Potency index, ratio of vincamine EC50 to test compound EC50 for cytoprotective activity in rat INS-1 832/13 cells assessed as inhibition of STZ-induced apoptosis; type: functional

## CC[C@@]12C=C(COC(N)=O)n3c4c(c5ccccc53)CCN(CCC1)[C@H]42
[1]
  Activity: Active
[2]
  EC50: 8.75 µM

## CCCOC(=O)C1=C[C@]2(CC)CCCN3CCc4c(n1c1ccccc41)[C@@H]32
[1]
  Activity: Active
[2]
  EC50: 5.44 µM

## CC[C@@]12C=C(COC(=O)NC(C)C)n3c4c(c5ccccc53)CCN(CCC1)[C@H]42
[1]
  Activity: Active
[2]
  EC50: 10.8 µM

## CCCCNC(=O)C1=C[C@]2(CC)CCCN3CCc4c(n1c1ccccc41)[C@@H]32
[1]
  Activity: Active
[2]
  EC50: 9.4 µM

## CC[C@@]12C=C(COC(=O)NCCCO)n3c4c(c5ccccc53)CCN(CCC1)[C@H]42
[1]
  Activity: Active
[2]
  EC50: 9.05 µM

## CCC(=O)NCC1=C[C@]2(CC)CCCN3CCc4c(n1c1ccccc41)[C@@H]32
[1]
  Activity: Active
[2]
  EC50: 3.02 µM

## CCNC(=O)NCC1=C[C@]2(CC)CCCN3CCc4c(n1c1ccccc41)[C@@H]32
[1]
  Activity: inactive

## CC[C@@]12C=C(CNC(=O)Nc3ccccc3)n3c4c(c5ccccc53)CCN(CCC1)[C@H]42
[1]
  Activity: inactive

## CC[C@@]12C=C(CNC)n3c4c(c5ccccc53)CCN(CCC1)[C@H]42
[1]
  Activity: Active
[2]
  EC50: 1.6 µM

## CC[C@@]12C=C(C(=O)NCCO)n3c4c(c5ccccc53)CCN(CCC1)[C@H]42
[1]
  Activity: Active
[2]
  EC50: 0.96 µM

## CC[C@@]12C=C(COC(=O)Nc3ccccc3)n3c4c(c5ccccc53)CCN(CCC1)[C@H]42
[1]
  Activity: inactive

## CC[C@@]12C=C(C(=O)N3CCCC3)n3c4c(c5ccccc53)CCN(CCC1)[C@H]42
[1]
  Activity: Active
[2]
  EC50: 13.2 µM

## CC[C@@]12C=C(CNC(=O)C3CC3)n3c4c(c5ccccc53)CCN(CCC1)[C@H]42
[1]
  Activity: Active
[2]
  EC50: 4.4 µM

## CC[C@@]12C=C(C(=O)OC(C)C)n3c4c(c5ccccc53)CCN(CCC1)[C@H]42
[1]
  Activity: Active
[2]
  EC50: 4.55 µM

## CC[C@@]12C=C(C(=O)NC(C)C)n3c4c(c5ccccc53)CCN(CCC1)[C@H]42
[1]
  Activity: Active
[2]
  EC50: 10.8 µM

## CCCCCNC(=O)C1=C[C@]2(CC)CCCN3CCc4c(n1c1ccccc41)[C@@H]32
[1]
  Activity: inactive

## CC[C@@]12C=C(CNC(=O)c3ccccc3)n3c4c(c5ccccc53)CCN(CCC1)[C@H]42
[1]
  Activity: inactive

## CCCC(=O)NCC1=C[C@]2(CC)CCCN3CCc4c(n1c1ccccc41)[C@@H]32
[1]
  Activity: Active
[2]
  EC50: 8.7 µM

## CC[C@@]12C=C(C(=O)N(C)C)n3c4c(c5ccccc53)CCN(CCC1)[C@H]42
[1]
  Activity: inactive

## CCCNCC1=C[C@]2(CC)CCCN3CCc4c(n1c1ccccc41)[C@@H]32
[1]
  Activity: inactive

## CCCC(=O)OCC1=C[C@]2(CC)CCCN3CCc4c(n1c1ccccc41)[C@@H]32
[1]
  Activity: Active
[2]
  EC50: 3.77 µM

## CC[C@@]12C=C(CNC(=O)C(C)C)n3c4c(c5ccccc53)CCN(CCC1)[C@H]42
[1]
  Activity: Active
[2]
  EC50: 7.2 µM

## CCCNC(=O)C1=C[C@]2(CC)CCCN3CCc4c(n1c1ccccc41)[C@@H]32
[1]
  Activity: Active
[2]
  EC50: 0.37 µM

## CCCCN(CCCC)C(=O)C1=C[C@]2(CC)CCCN3CCc4c(n1c1ccccc41)[C@@H]32
[1]
  Activity: inactive

## CC[C@@]12C=C(C(=O)Nc3ccccc3)n3c4c(c5ccccc53)CCN(CCC1)[C@H]42
[1]
  Activity: inactive

## CC[C@@]12C=C(C(=O)N3CCCCC3)n3c4c(c5ccccc53)CCN(CCC1)[C@H]42
[1]
  Activity: Active
[2]
  EC50: 4.89 µM

## CC[C@@]12C=C(COC(=O)c3ccccc3)n3c4c(c5ccccc53)CCN(CCC1)[C@H]42
[1]
  Activity: inactive

## CC[C@@]12C=C(COC(C)=O)n3c4c(c5ccccc53)CCN(CCC1)[C@H]42
[1]
  Activity: Active
[2]
  EC50: 0.36 µM

## CC[C@@]12C=C(CNCc3ccccc3)n3c4c(c5ccccc53)CCN(CCC1)[C@H]42
[1]
  Activity: inactive

## CCNC(=O)OCC1=C[C@]2(CC)CCCN3CCc4c(n1c1ccccc41)[C@@H]32
[1]
  Activity: Active
[2]
  EC50: 1.69 µM

## CC[C@@]12C=C(C(=O)NC)n3c4c(c5ccccc53)CCN(CCC1)[C@H]42
[1]
  Activity: Active
[2]
  EC50: 0.66 µM

## CC[C@@]12C=C(C(=O)NC3CCCC3)n3c4c(c5ccccc53)CCN(CCC1)[C@H]42
[1]
  Activity: Active
[2]
  EC50: 12.8 µM

## CCNC(=O)C1=C[C@]2(CC)CCCN3CCc4c(n1c1ccccc41)[C@@H]32
[1]
  Activity: Active
[2]
  EC50: 0.2 µM

## CC[C@@]12C=C(COC(=O)NCCO)n3c4c(c5ccccc53)CCN(CCC1)[C@H]42
[1]
  Activity: Active
[2]
  EC50: 5.32 µM

## CCCNC(=O)OCC1=C[C@]2(CC)CCCN3CCc4c(n1c1ccccc41)[C@@H]32
[1]
  Activity: Active
[2]
  EC50: 5.85 µM

## CC[C@@]12C=C(C(=O)N3CCOCC3)n3c4c(c5ccccc53)CCN(CCC1)[C@H]42
[1]
  Activity: Active
[2]
  EC50: 10.9 µM

## CC[C@@]12C=C(C(=O)NCCCO)n3c4c(c5ccccc53)CCN(CCC1)[C@H]42
[1]
  Activity: Active
[2]
  EC50: 10.2 µM

## CC[C@@]12C=C(C(=O)Nc3ccc(OC)cc3)n3c4c(c5ccccc53)CCN(CCC1)[C@H]42
[1]
  Activity: inactive

## CC[C@@]12C=C(CNC(N)=O)n3c4c(c5ccccc53)CCN(CCC1)[C@H]42
[1]
  Activity: inactive

## CCCCNC(=O)OCC1=C[C@]2(CC)CCCN3CCc4c(n1c1ccccc41)[C@@H]32
[1]
  Activity: inactive

## CC[C@@]12C=C(COC(=O)NC)n3c4c(c5ccccc53)CCN(CCC1)[C@H]42
[1]
  Activity: Active
[2]
  EC50: 1.65 µM

## CC[C@@]12C=C(CO)n3c4c(c5ccccc53)CCN(CCC1)[C@H]42
[3]
  Activity: Active
[4]
  Activity: Active
[5]
  Activity: Active
[6]
  Activity: 32%
[7]
  Activity: Active
[8]
  Activity: Active
[9]
  Activity: Active
[10]
  Activity: Active
[11]
  Activity: Active
[12]
  Activity: Active
[13]
  Activity: 26.1%
[2]
  EC50: 0.22 µM
[14]
  Activity: Active
[15]
  Activity: 19.1%
[16]
  Activity: Active
[17]
  Activity: inactive
[18]
  Activity: Active
[19]
  Activity: inactive
[20]
  Ratio EC50: 2

## CCCN(CCC)C(=O)C1=C[C@]2(CC)CCCN3CCc4c(n1c1ccccc41)[C@@H]32
[1]
  Activity: Active
[2]
  EC50: 7.1 µM

## CC[C@@]12C=C(C(N)=O)n3c4c(c5ccccc53)CCN(CCC1)[C@H]42
[1]
  Activity: inactive
[2]
  EC50: 10.2 µM

## CC[C@@]12C=C(C(=O)OC)n3c4c(c5ccccc53)CCN(CCC1)[C@H]42 [APOVINCAMINE]
[1]
  Activity: Active
[2]
  EC50: 5.03 µM

## CC[C@@]12C=C(COC(=O)C(C)C)n3c4c(c5ccccc53)CCN(CCC1)[C@H]42
[1]
  Activity: Active
[2]
  EC50: 1.74 µM

## CCN(CC)C(=O)C1=C[C@]2(CC)CCCN3CCc4c(n1c1ccccc41)[C@@H]32
[1]
  Activity: Active
[2]
  EC50: 11.5 µM

## CCC(=O)OCC1=C[C@]2(CC)CCCN3CCc4c(n1c1ccccc41)[C@@H]32
[1]
  Activity: Active
[2]
  EC50: 6.84 µM

## CC[C@@]12C=C(CNC(=O)NC)n3c4c(c5ccccc53)CCN(CCC1)[C@H]42
[1]
  Activity: inactive

## CC[C@@]12C=C(CN)n3c4c(c5ccccc53)CCN(CCC1)[C@H]42
[1]
  Activity: Active
[2]
  EC50: 7.62 µM
